Series [1] in a line: Hydrolysis of OSu ester in aqueous acetone/PBS, monitored by 1H NMR. The class given is physicochemical. An excerpt:
FIG. 15. Hydrolysis of OSu ester (S18) in 80% acetone/PBS (pH 7.4) monitored by ^1H NMR.
FIG. 16. Hydrolysis of OSu ester (S18) in 50% acetone/PBS (pH 7.4) monitored by ^1H NMR.

A short description of series [2]: Stability of bicyclic peptide in DMSO-d6/PBS/D2O, monitored by 1H NMR. Type of series: physicochemical. Conditions: 0.96 mM in DMSO-d6/PBS (pH 5.9)/D2O (1/8/1), 1 week. The protocol: FIG. 38. Stability studies of 5h (0.96 mM) in DMSO-d6/PBS (pH 5.9)/D2O (1/8/1) monitored by ^1H NMR.
Series [3] is described as follows: Stability of bicyclic peptide in PBS at varied pH, monitored by LC-MS. Type of series: physicochemical. Conditions: 200 μM in PBS, pH 5.1, pH 7.4 and pH 9.2, over 16 days. On the procedure:
FIGS. 37a-37c. FIG. 37a. LC-MS (280 nm) trace of the bicyclic peptide 5h in PBS pH 5.1 over 16 days. FIG. 37b. LC-MS (280 nm) trace of the bicyclic peptide 5h in PBS pH 7.4 over 16 days. FIG. 37c. LC-MS (280 nm) trace of the bicyclic peptide 5h in PBS pH 9.21 over 16 days.
The bicyclic peptide 5h was prepared according to above mentioned procedure and purified by RP-HPLC. The solution of bicyclic peptide 5h (200 μM) in PBS was incubated at pH 5.1, pH 7.4, and pH 9.2, respectively. The sample was analyzed by LC-MS at different time points over 16 days (Method C).

Series [4] has as its target SARS-CoV-2 Spike RBD (SARS-CoV-2), P0DTC2. Description: ELISA: plate coated with 100 nM SARS-CoV-2 Spike RBD, biotinylated bicyclic peptide titrated, streptavidin-HRP/TMB, A450; curve fitting. A general note: ELISA stands for enzyme-linked immunosorbent assay.

Entries after “also recorded” stand apart in the source; their conditions may differ. Numbered stars: 1 amine (or outer) side, 2 acyl side, 3 side chain; on linkers, the order of the positions; unused ones are H or OH. Bridge positions count the residues as written; N and C are the ends. Square brackets hold non-standard residues; d marks the D form. Peptide text beside a SMILES is read from it. X1 = O=C(c1cc(/C(=N/O)[*:2])cc(/C(=N/O)[*:3])c1)[*:1]; d(aIle) = CC[C@H](C)[C@@H](N)C(=O)O

From patent US20260132547A1, “NOVEL PHAGE LIBRARIES OF BICYCLIC PEPTIDES” (priority 2024, published 2026) come the findings set out here.

For orientation: Kd means the equilibrium constant for the complex coming apart. Low readings indicate tighter binding, high ones weaker binding.

Consider `O=C(ON1C(=O)CCC1=O)c1ccc(/C=N/O)cc1` [S18], for which the “Percentage of S20 (%)” value in series [1] (acetone-d6/PBS/D2O (5/4/1), 20 min) is 12%; in series [1] (acetone-d6/PBS/D2O (5/4/1), 1 h) it was 26%; in series [1] (acetone-d6/PBS/D2O (5/4/1), 2 h), 33%; in series [1] (acetone-d6/PBS/D2O (8/1/1), 20 min) it was “trace”; in series [1] (acetone-d6/PBS/D2O (8/1/1), 1 h), “trace”; in series [1] (acetone-d6/PBS/D2O (8/1/1), 20 h), 4%.

For the molecule `CC[C@H](C)[C@H]1NC(=O)[C@H](CC(C)C)NC(=O)[C@H](C)NC(=O)c2cc3cc(c2)/C(=N/O)SC[C@H](NC(=O)CNC1=O)C(=O)N1CCC[C@H]1C(=O)N[C@@H](Cc1ccccc1)C(=O)N1CCC[C@H]1C(=O)N[C@@H](C)C(=O)N[C@@H](CCCNC(=N)N)C(=O)N[C@@H](Cc1c[nH]c2ccccc12)C(=O)N[C@H](C(N)=O)CS/C3=N\O` [5h] (AL[d(aIle)]GCPFPARWC-NH2; linker N-5-12 via X1), in series [2], the “Chemical stability (1H NMR profile)” value is “no change of NMR profile”. For the same molecule, the “Chemical stability in PBS (LC-MS profile)” value in series [3] is recorded as “remained intact; also recorded: no change of the LC-MS profile”.

The molecule AIDSCRYNHGWQC (modifications not checked) [bicyclized NP8 (…)] yielded a Kd in series [4] of 3000 nM.

In series [4], AISECNHIAEWMC (modifications not checked) [bicyclized NP10 (…)] returned a Kd of 400 nM.
